Assay: Thermogravimetric analysis under air
Format: physicochemical
Procedure: A thermogravimetric analysis under air of the compound 3a was also carried out after storage exposed to the air for 3 weeks.
By way of comparison, a thermogravimetric analysis of an imidazolium iodide not coming within the invention, namely 1,3-dimethylimidazolium iodide (DMII), was also carried out.
The results obtained are given in the appended FIGS. 1 and 2. FIG. 1 gives the results of the calorimetric analysis of the compound 3a. In this figure, the heat flux (in W/g) is a function of the temperature (in ° C.). FIG. 2 gives the results of the thermogravimetric analysis for the compound 3a (continuous line) in comparison with the DMII (noncontinuous line).
In comparison, DMII allows a loss in weight of the order of 30% originating from the water captured as a result of its hygroscopicity.

Compound | loss in weight originating from captured water (hygroscopicity) (thermogravimetric analysis) [%] | hygroscopicity (after storage exposed to the air for 3 weeks) | temperature up to which the compound is stable (thermogravimetric analysis under air) [°C]
Cn1cc[n+](C)c1.[I-] [DMII, 1,3-Dimethylimidazolium iodide, reference compound] | ~30 |  | 
COC(=O)CCc1cn(C)c[n+]1C.[I-] [Compound 3a, 4-(3-methoxy-3-oxopropyl)-1,3-dimethyl-1H-imidazol-3-ium Iodide] |  | does not exhibit any hygroscopicity nature | 300
